Columns and labels:
[1] = test system: C57B1/6/c mice; assay: Immunization with rDPV protein, DPV specific CTL responses by 51Cr release assay; format: in vivo; settings: 5 μg intradermal on day 0 and day 21, spleens day 42, FIG. 4, effective response defined as >10% specific lysis
[2] = test system: K562 cells; assay: Cell uptake by K562 cells, flow cytometry (Mean Fluorescence Intensity); format: cell-based; settings: for cell uptake as judged by the mean of fluorescence intensity: 37° C.
Protocol: Cell association was measured by flow cytometry using a FACScan (Becton Dickinson, USA). Free or vectorised compounds were incubated with K562 cells (5×10^5 cells per ml) in Optimem medium at 37° C. for various periods of time.
Thereafter, the cells were washed twice and then resuspended in 0.5 ml of ice-cold PBS for FACS analysis. Cell-associated fluorophores were excited at 488 nm and fluorescence was measured at 525 nm. A histogram of fluorescence intensity per cell (1×10^4) was obtained and the calculated mean of this distribution (Mean Fluorescence Intensity) was considered as representative of the amount of cell-associated peptide
Flu NP epitope was conjugated to SynB3 and SynB4 vectors. First, we compared the cell uptake of free and conjugated flu NP. Flu NP epitope was conjugated to SynB3 and SynB4 vectors and labelled with a fluorescent group (NBD). The compounds were incubated with K562 cells for various times and the cell uptake was measured using flow cytometry.
We also coupled rDPV protein with SynB3 and SynB4 vectors. The coupling procedure is described in the Protocols. First, we compared the cell uptake of free and coupled rDPV. The rDPV was labelled with a fluorescent group (NBD) in order to measure its uptake. The compounds were incubated with K562 cells for various times and the cell uptake was measured using flow cytometry.

[3] = test system: Balb/c mice; assay: Immunization with flu NP peptide, CTL responses by 51Cr release assay; format: in vivo; settings: FIG. 2; for specific CTL responses: intradermal, 25 μg flu NP peptide equivalent, spleens after three weeks; for mice eliciting CTL responses: three mice per group
[4] = NBD-labelled free or coupled rDPV, FIG. 3
[5] = NBD-labelled free or conjugated flu NP, FIG. 1

Row | Substance | mean CTL response [1] | time at which cell uptake reached saturation ([2]; FIG. 3) [min] | cell uptake as judged by the mean of fluorescence intensity [2, 4] | cell uptake as judged by the mean of fluorescence intensity ([2]; NBD-labelled free or coupled rDPV, FIG. 3, listed as rDPV-SynB4) | cell uptake as judged by the mean of fluorescence intensity [2, 5] | cell uptake higher than the one observed for free flu NP ([2]; at 45 min) | specific CTL responses [3] | mice eliciting CTL responses [3]
1 | AWSFRVSYRGISYRRSR-rDPV ((SEQ ID NO:18)-rDPV) [SynB4/rDPV] | strong CTL responses | 100 | increased significantly | slightly better than SynB3 |  |  |  | 
2 | RRLSYSRRRF-rDPV ((SEQ ID NO:11)-rDPV) [SynB3/rDPV] | strong CTL responses | 30 | increased significantly |  |  |  |  | 
3 | AWSFRVSYRGISYRRSR-TYQRTRALV (SEQ ID NO:21) (AWSFRVSYRGISYRRSRTYQRTRALV) [SynB4/flu NP] |  |  |  |  | increased significantly | about 5 fold | elicited specific CTL responses | all mice
4 | RRLSYSRRRF-TYQRTRALV (SEQ ID NO:22) (RRLSYSRRRFTYQRTRALV) [SynB3/flu NP] |  |  |  |  | increased significantly |  | elicited specific CTL responses | all mice
5 | TYQRTRALV (SEQ ID NO:20) [flu NP, reference compound] |  |  |  |  | very low uptake |  | failed to elicit specific CTL responses | 

Source: patent US7314626B2, “Use of peptide vectors to improve the immune response to antigens” (SYNT:EM S.A., priority 2001, dated 2008)
